{"source": "paper PMC4710668", "about": "“Bioactivation of food genotoxicants 5-hydroxymethylfurfural and furfuryl alcohol by sulfotransferases from human, mouse and rat: a comparative study” (Archives of Toxicology, 2014)", "assay_in_all_cases": "HMF sulfoconjugation assay", "assay_type_in_all_cases": "biochemical", "key": {"hSULT1C3": {"molecular_target": "T1, hSULT1C3 (Homo sapiens, UniProt Q6IMI6)", "T1 construct": "made in house; host or cells: Salmonella typhimurium TA1538 (cytosolic fraction, not purified)", "T1 sequence (Q6IMI6 whole entry)": "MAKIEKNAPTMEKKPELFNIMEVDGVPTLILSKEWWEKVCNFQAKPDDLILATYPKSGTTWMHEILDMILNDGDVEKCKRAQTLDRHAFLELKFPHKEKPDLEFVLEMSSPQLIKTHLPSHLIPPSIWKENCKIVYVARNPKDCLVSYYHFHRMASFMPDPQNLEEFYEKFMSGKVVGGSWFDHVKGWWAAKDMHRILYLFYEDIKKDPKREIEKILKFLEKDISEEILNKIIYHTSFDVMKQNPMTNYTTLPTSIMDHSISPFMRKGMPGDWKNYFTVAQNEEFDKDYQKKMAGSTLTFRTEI", "experimental": "(§1) Cytosolic fractions containing individual SULT forms were prepared from transgenic S. typhimurium TA1538. Table S1 in the Supplementary Material provides a summary of the thirty SULTs used in the current study together with references describing the cloning of the respective S. typhimurium TA1538 strains. The expressed SULT forms are denoted with the prefixes h, m and r for human, mouse and rat enzymes, respectively. Bacteria were grown in Luria Broth medium containing ampicillin (100 µg/ml) by stirring for 8 h at 200 revolutions/min at 37 °C. The bacterial suspensions were centrifuged at 5,000 g for 10 min. The sediments were washed twice with 25 ml of 10 mM potassium phosphate buffer (pH 7.4)/50 mM potassium chloride (KCP buffer) and centrifuged again. The pellets were taken up in 800 µl KCP buffer and sonicated thrice for 15 s with 30 s pauses in between. The soluble fraction was attained by centrifuging for 1 h at 100,000 g. The supernatants (in the following termed cytosolic preparations) were frozen at −80 °C. The protein concentrations were determined according to a bicinchoninic acid (BCA) assay protocol. The SULT concentrations in the cytosolic preparations were estimated after electrophoretic separation and immunodetection using inclusion bodies of different SULT forms as standards (Teubner et al. [2007]). The preparation of SULT inclusion bodies and the immunodetection of SULTs is described in the Supplementary Material, which also contains a representative immunoblot of different amounts of rSult1a1standard and a cytosolic preparation of S. typhimurium expressing rSult1a1 (Fig. S1).\n(§2) The reactions were conducted in mixtures of 100 µl containing 25–200 µg protein, 50 mM potassium phosphate buffer (pH 7.4), 5 mM MgCl2, 50 µM PAPS and different concentrations of HMF at 37 °C. Preliminary experiments ensured that measurements were recorded under ‘linear’ conditions, i.e., doubling of protein concentration or incubation time was doubling the amount of sulfate ester formed. The reactions were stopped after 30 min by adding 300 µl ice-cold 2-propanol, mixed and centrifuged at 15,000 g for 10 min.\n(§3) SMF concentrations of the clear supernatants were analyzed by UPLC-MS/MS. The protocol was adapted from the quantification of SMF in plasma samples of HMF-treated mice (Monien et al. [2009]). In short, the supernatants were analyzed using a UPLC system (Waters) connected to a Quattro Premier XE tandem quadrupole mass spectrometer (Waters) using the negative electrospray ionization mode. Samples of 4 µl were injected into a HSS T3 column (1.8 µm, 2.1 × 100 mm; Waters) and eluted with an isocratic flow of 0.35 ml/min 10 mM ammonium acetate/methanol (95:5). The fragmentation reactions of SMF yielding two principal ions, the sulfate ion radical (m/z = 204.9 → 96.0) and the protonated sulfonate ion (m/z = 204.9 → 81.0) were monitored. The tune parameters were as follows: temperature of the electrospray source 120 °C; desolvation temperature 475 °C; desolvation gas nitrogen (800 l/h); cone gas nitrogen (100 l/h); collision gas argon (indicated cell pressure ~5 × 10^−3 mbar). For the fragmentation of SMF, collision energies were 20 and 23 eV for the transitions m/z = 204.9 → 81.0 and m/z = 204.9 → 96.0, respectively. The dwell time was set to 100 ms, and capillary voltage was set to 0.35 kV. The cone and RF1 lens voltages were 32 and 0.2 V, respectively. SMF was quantified using an external calibration line that was linear in the concentration range of 1.0 nM (4 fmol/injection) to 2,500 (10 pmol/injection) SMF (r ^2 ≥ 0.99). Data acquisition and handling were performed with MassLynx 4.1 software (Waters). The limit of detection (LOD) for this technique of 2.5 nM SMF has been reported (Monien et al. [2009]). In the current study, this corresponds to 10 fmol SMF per injection or a reaction rate of 0.5 pmol SMF/mg/min."}, "mSult1c2": {"molecular_target": "T2, mSult1c2 (Mus musculus, UniProt Q9D939)", "T2 construct": "made in house; host or cells: Salmonella typhimurium TA1538 (cytosolic fraction, enzyme not purified)", "T2 sequence (Q9D939 whole entry)": "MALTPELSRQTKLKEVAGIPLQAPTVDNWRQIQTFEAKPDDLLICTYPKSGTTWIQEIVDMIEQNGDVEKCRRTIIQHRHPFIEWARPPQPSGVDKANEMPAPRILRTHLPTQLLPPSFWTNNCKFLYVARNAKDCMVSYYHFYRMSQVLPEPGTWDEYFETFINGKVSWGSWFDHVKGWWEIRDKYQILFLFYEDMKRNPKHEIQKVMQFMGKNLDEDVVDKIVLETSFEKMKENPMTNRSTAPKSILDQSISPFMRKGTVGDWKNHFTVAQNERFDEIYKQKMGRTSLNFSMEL", "experimental": "as §1, §2, §3"}, "mSult2a2": {"molecular_target": "T3, mSult2a2 (Mus musculus, UniProt P50236)", "T3 construct": "made in house; host or cells: Salmonella typhimurium TA1538 (cytosolic fraction, enzyme not purified)", "T3 sequence (P50236 1-285)": "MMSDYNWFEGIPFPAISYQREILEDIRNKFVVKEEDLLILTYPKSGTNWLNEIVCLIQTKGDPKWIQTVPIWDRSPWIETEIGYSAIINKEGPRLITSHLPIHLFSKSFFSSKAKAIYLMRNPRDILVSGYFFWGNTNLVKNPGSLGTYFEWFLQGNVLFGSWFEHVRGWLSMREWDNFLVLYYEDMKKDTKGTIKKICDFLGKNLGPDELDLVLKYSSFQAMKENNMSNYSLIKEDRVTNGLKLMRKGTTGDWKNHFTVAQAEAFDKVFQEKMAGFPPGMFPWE", "experimental": "as §1, §2, §3"}, "rSult1a1": {"molecular_target": "T4, rSult1a1 (Rattus norvegicus, UniProt P17988)", "T4 construct": "made in house; host or cells: Salmonella typhimurium TA1538 (cytosolic fraction, enzyme not purified)", "T4 sequence (P17988 whole entry)": "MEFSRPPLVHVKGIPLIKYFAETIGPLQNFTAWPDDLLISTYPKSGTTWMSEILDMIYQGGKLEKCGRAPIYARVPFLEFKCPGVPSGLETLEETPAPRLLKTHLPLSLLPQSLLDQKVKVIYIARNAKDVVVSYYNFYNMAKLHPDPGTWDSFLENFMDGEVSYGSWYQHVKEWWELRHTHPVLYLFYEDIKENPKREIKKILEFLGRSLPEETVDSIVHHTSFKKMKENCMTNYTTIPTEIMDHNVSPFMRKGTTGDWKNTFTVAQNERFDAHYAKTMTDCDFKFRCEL", "experimental": "as §1, §2, §3"}, "hSULT1C2": {"molecular_target": "T5, hSULT1C2 (Homo sapiens, UniProt O75897)", "T5 construct": "made in house; host or cells: Salmonella typhimurium TA1538 (cytosolic fraction, not purified)", "T5 sequence (O75897 whole entry)": "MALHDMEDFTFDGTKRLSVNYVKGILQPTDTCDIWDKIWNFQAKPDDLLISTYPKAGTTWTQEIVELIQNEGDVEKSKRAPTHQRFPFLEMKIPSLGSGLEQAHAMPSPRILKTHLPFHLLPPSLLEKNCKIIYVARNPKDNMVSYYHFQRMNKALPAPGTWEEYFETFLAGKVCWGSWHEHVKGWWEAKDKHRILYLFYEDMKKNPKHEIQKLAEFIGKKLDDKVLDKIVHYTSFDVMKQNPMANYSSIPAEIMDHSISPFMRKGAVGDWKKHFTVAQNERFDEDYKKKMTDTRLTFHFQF", "experimental": "as §1, §2, §3"}, "hSULT4A1": {"molecular_target": "T6, hSULT4A1 (Homo sapiens, UniProt Q9BR01)", "T6 construct": "made in house; host or cells: Salmonella typhimurium TA1538 (cytosolic fraction, not purified)", "T6 sequence (Q9BR01 1-284)": "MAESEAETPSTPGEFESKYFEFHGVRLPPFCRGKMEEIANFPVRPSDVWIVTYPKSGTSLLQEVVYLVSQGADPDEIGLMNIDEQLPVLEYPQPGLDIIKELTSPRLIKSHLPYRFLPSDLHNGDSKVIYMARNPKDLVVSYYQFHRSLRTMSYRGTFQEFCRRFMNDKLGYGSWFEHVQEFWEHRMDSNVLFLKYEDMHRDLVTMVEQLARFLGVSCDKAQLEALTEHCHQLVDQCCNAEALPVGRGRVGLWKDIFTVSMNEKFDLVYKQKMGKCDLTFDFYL", "experimental": "as §1, §2, §3"}, "[1]": {"conditions": "HMF sulfoconjugation, Michaelis-Menten fit"}}}
{"molecule": "O=Cc1ccc(CO)o1", "note": "[HMF, 5-Hydroxymethylfurfural]", "values": [{"measurement": "Rate of sulfoconjugation", "setting": "hSULT1C3; 0.1 mM HMF", "value": "<0.5", "unit": "pmol/mg/min"}, {"measurement": "Rate of sulfoconjugation", "setting": "hSULT1C3; 1 mM HMF", "value": "1.0 ± 0.1", "unit": "pmol/mg/min"}, {"measurement": "Rate of sulfoconjugation", "setting": "hSULT1C3; 10 mM HMF", "value": "7.2 ± 0.9", "unit": "pmol/mg/min"}, {"measurement": "Rate of sulfoconjugation", "setting": "hSULT1C3; 100 mM HMF", "value": "3.6 ± 0.2", "unit": "pmol/mg/min"}, {"measurement": "Rate of sulfoconjugation", "setting": "mSult1c2; 0.1 mM HMF", "value": "<0.5", "unit": "pmol/mg/min"}, {"measurement": "Rate of sulfoconjugation", "setting": "mSult1c2; 1 mM HMF", "value": "2.0 ± 0.2", "unit": "pmol/mg/min"}, {"measurement": "Rate of sulfoconjugation", "setting": "mSult1c2; 10 mM HMF", "value": "16.2 ± 1.1", "unit": "pmol/mg/min"}, {"measurement": "Rate of sulfoconjugation", "setting": "mSult1c2; 100 mM HMF", "value": "92.4 ± 6.7", "unit": "pmol/mg/min"}, {"measurement": "Rate of sulfoconjugation", "setting": "mSult2a2; 0.1 mM HMF", "value": "<0.5", "unit": "pmol/mg/min"}, {"measurement": "Rate of sulfoconjugation", "setting": "mSult2a2; 1 mM HMF", "value": "4.4 ± 0.8", "unit": "pmol/mg/min"}, {"measurement": "Rate of sulfoconjugation", "setting": "mSult2a2; 10 mM HMF", "value": "32.4 ± 3.2", "unit": "pmol/mg/min"}, {"measurement": "Rate of sulfoconjugation", "setting": "mSult2a2; 100 mM HMF", "value": "77.5 ± 11.7", "unit": "pmol/mg/min"}, {"measurement": "Rate of sulfoconjugation", "setting": "rSult1a1; 0.1 mM HMF", "value": "<0.5", "unit": "pmol/mg/min"}, {"measurement": "Rate of sulfoconjugation", "setting": "rSult1a1; 1 mM HMF", "value": "6.5 ± 2.1", "unit": "pmol/mg/min"}, {"measurement": "Rate of sulfoconjugation", "setting": "rSult1a1; 10 mM HMF", "value": "43.6 ± 13.7", "unit": "pmol/mg/min"}, {"measurement": "Rate of sulfoconjugation", "setting": "rSult1a1; 100 mM HMF", "value": "36.1 ± 16.8", "unit": "pmol/mg/min"}, {"measurement": "K M", "setting": "rSult1a1; [1]", "value": "4.9 ± 0.7", "unit": "mM"}, {"measurement": "Rate of sulfoconjugation", "setting": "hSULT1C2; 0.1 mM HMF", "value": "1.1 ± 0.3", "unit": "pmol/mg/min"}, {"measurement": "Rate of sulfoconjugation", "setting": "hSULT1C2; 1 mM HMF", "value": "14.0 ± 1.8", "unit": "pmol/mg/min"}, {"measurement": "Rate of sulfoconjugation", "setting": "hSULT1C2; 10 mM HMF", "value": "115 ± 14", "unit": "pmol/mg/min"}, {"measurement": "Rate of sulfoconjugation", "setting": "hSULT1C2; 100 mM HMF", "value": "285 ± 71", "unit": "pmol/mg/min"}, {"measurement": "K M", "setting": "hSULT1C2; [1]", "value": "18.8 ± 5.4", "unit": "mM"}, {"measurement": "Rate of sulfoconjugation", "setting": "hSULT4A1; 0.1 mM HMF", "value": "<0.5", "unit": "pmol/mg/min"}, {"measurement": "Rate of sulfoconjugation", "setting": "hSULT4A1; 1 mM HMF", "value": "<0.5", "unit": "pmol/mg/min"}, {"measurement": "Rate of sulfoconjugation", "setting": "hSULT4A1; 10 mM HMF", "value": "<0.5", "unit": "pmol/mg/min"}, {"measurement": "Rate of sulfoconjugation", "setting": "hSULT4A1; 100 mM HMF", "value": "<0.5", "unit": "pmol/mg/min"}]}
